According to the supplement of paper PMC4862054:

Tests used:
Conditions in all cases: incubation time: 72 h
BT-474 [1] = test: normalised response (% of control), CellTox Green; higher = less cell death (100 = DMSO, 0 = benzethonium chloride kill control)
Procedure, shortened: (§1)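 Breast cancer cell lines (20 µl suspension) were seeded into 384-well plates holding compound at 5 concentrations in 10-fold steps over a compound-specific 10,000-fold range, then incubated 72 h. CellTox Green fluorescence (485/520 nm) was read first, then CellTiter-Glo luminescence after 10 min at room temperature. Each plate was normalised to 0.1 % DMSO (100) and a positive kill control (0). Each value is the normalised signal at a single concentration of the series.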

BT-549 [2] = test: as above
Procedure, shortened: as §1

CAL-120 [3] = test: as above
Procedure, shortened: as §1

CAL-148 [4] = test: as above
Procedure, shortened: as §1

CAL-51 [5] = test: as above
Procedure, shortened: as §1

CAL-85-1 [6] = test: as above
Procedure, shortened: as §1

DU-4475 [7] = test: as above
Procedure, shortened: as §1

HCC1143 [8] = test: as above
Procedure, shortened: as §1

HCC1599 [9] = test: as above
Procedure, shortened: as §1

HCC1937 [10] = test: as above
Procedure, shortened: as §1

HDQ-P1 [11] = test: as above
Procedure, shortened: as §1

Hs578T [12] = test: as above
Procedure, shortened: as §1

MCF-10A [13] = test: as above
Procedure, shortened: as §1

MDA-MB-231 [14] = test: as above
Procedure, shortened: as §1

MDA-MB-436 [15] = test: as above
Procedure, shortened: as §1

MDA-MB-453 [16] = test: as above
Procedure, shortened: as §1

MDA-MB-468 [17] = test: as above
Procedure, shortened: as §1

MFM-223 [18] = test: as above
Procedure, shortened: as §1

BT-474 [19] = test: normalised response (% of control), CellTiter-Glo; higher = more viable cells (100 = DMSO, 0 = benzethonium chloride kill control)
Method: (§2)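 DSRT, 72 h incubation, CellTox Green / CellTiter-Glo readout. Signal is normalised to DMSO and benzethonium chloride controls. Value is the normalised response at the highest dose.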

BT-549 [20] = test: as above
Method: as §2

CAL-120 [21] = test: as above
Method: as §2

CAL-148 [22] = test: as above
Method: as §2

CAL-51 [23] = test: as above
Method: as §2

CAL-85-1 [24] = test: as above
Method: as §2

DU-4475 [25] = test: as above
Method: as §2

HCC1143 [26] = test: as above
Method: as §2

HCC1599 [27] = test: as above
Method: as §2

HCC1937 [28] = test: as above
Method: as §2

HDQ-P1 [29] = test: as above
Method: as §2

Hs578T [30] = test: as above
Method: as §2

MCF-10A [31] = test: as above
Method: as §2

MDA-MB-231 [32] = test: as above
Method: as §2

MDA-MB-436 [33] = test: as above
Method: as §2

MDA-MB-453 [34] = test: as above
Method: as §2

MDA-MB-468 [35] = test: as above
Method: as §2

MFM-223 [36] = test: as above
Method: as §2

SK-BR-3 = test: as above
Method: as §2

SMILES	normalised response (BT-474 [1])	normalised response (BT-549 [2])	normalised response (CAL-120 [3])	normalised response (CAL-148 [4])	normalised response (CAL-51 [5])	normalised response (CAL-85-1 [6])	normalised response (DU-4475 [7])	normalised response (HCC1143 [8])	normalised response (HCC1599 [9])	normalised response (HCC1937 [10])	normalised response (HDQ-P1 [11])	normalised response (Hs578T [12])	normalised response (MCF-10A [13])	normalised response (MDA-MB-231 [14])	normalised response (MDA-MB-436 [15])	normalised response (MDA-MB-453 [16])	normalised response (MDA-MB-468 [17])	normalised response (MFM-223 [18])	normalised response (BT-474 [19])	normalised response (BT-549 [20])	normalised response (CAL-120 [21])	normalised response (CAL-148 [22])	normalised response (CAL-51 [23])	normalised response (CAL-85-1 [24])	normalised response (DU-4475 [25])	normalised response (HCC1143 [26])	normalised response (HCC1599 [27])	normalised response (HCC1937 [28])	normalised response (HDQ-P1 [29])	normalised response (Hs578T [30])	normalised response (MCF-10A [31])	normalised response (MDA-MB-231 [32])	normalised response (MDA-MB-436 [33])	normalised response (MDA-MB-453 [34])	normalised response (MDA-MB-468 [35])	normalised response (MFM-223 [36])	normalised response (SK-BR-3)
CCCCCCCCc1ccc(CCC(N)(CO)CO)cc1 [Fingolimod] (10000 nM)	0.12%	57%	69.4%	67.4%	47.5%	-110%	100%	97%	91.4%	5.79%	53.7%	37.8%	-90%	-62.5%	44.4%	33.6%	-186%	62.1%	1.96%	11.2%	78.1%	44.7%	47.6%	-0.17%	89.2%	75.8%	61.6%	5.87%	27.9%	62.2%	-0.32%	1.4%	12.8%	0.66%	-0.02%	39.2%	-0.19%
CO[C@H]1C[C@@H]2CC[C@@H](C)[C@@](O)(O2)C(=O)C(=O)N2CCCC[C@H]2C(=O)O[C@H]([C@H](C)C[C@@H]2CC[C@@H](OCCO)[C@H](OC)C2)CC(=O)[C@H](C)/C=C(\C)[C@@H](O)[C@@H](OC)C(=O)[C@H](C)C[C@H](C)/C=C/C=C/C=C/1C [Everolimus] (100 nM)	100%	100%	99.3%	92.5%	98.1%	122%	95.4%	66.4%	95.8%	88.6%	109%	79.6%	92.9%	111%	99.7%	104%	158%	53.1%	77.6%	61%	63.5%	53.4%	64.3%	63.1%	63.7%	61.5%	104%	66.1%	72.9%	65.1%	80.9%	87.9%	75.5%	51.5%	57.5%	61.6%	49.5%
CN(C)CCN1C(=O)c2cccc3cc(N)cc(c23)C1=O [Amonafide] (10000 nM)	97.8%	122%	101%	32.8%	23.1%	63.4%	83.8%	93.5%	98%	120%	87%	114%	77%	111%	63.8%	112%	125%	100%	43.9%	47%	52.3%	25.4%	17.7%	47.6%	14.6%	52.3%	57.2%	55.7%	53.1%	61.7%	45%	39.2%	38.8%	77.8%	43.5%	69.7%	31.9%
CC(C)(C#N)c1cc(Cn2cncn2)cc(C(C)(C)C#N)c1 [Anastrozole] (10000 nM)	93%	98.8%	99.1%	105%	100%	92.9%	95.3%	–	106%	69.8%	105%	77.6%	105%	–	107%	88%	116%	89.5%	97.5%	102%	98.3%	104%	98.6%	104%	103%	102%	99.8%	101%	100%	100%	101%	99.9%	96%	108%	105%	103%	108%
COc1ccccc1S(=O)(=O)Nc1ccc2c(c1)CN(C)C(=O)N2 [PFI-1] (10000 nM)	105%	108%	104%	91.6%	83.5%	65.1%	90.2%	104%	104%	120%	103%	135%	125%	117%	101%	94.5%	193%	103%	64.6%	44.5%	75.8%	82%	56.9%	46.2%	71.8%	67.1%	56.6%	74.1%	65.2%	41.6%	54.1%	66.8%	80%	42.8%	65.4%	59.5%	64.3%
Cc1ccc(NC(=O)c2ccc(CN3CCN(C)CC3)cc2)cc1Nc1nccc(-c2cccnc2)n1 [Imatinib] (10000 nM)	96.6%	92.7%	101%	103%	93.1%	84.2%	97.9%	91.2%	94.8%	–	74.4%	76.1%	65.1%	114%	87.4%	-13.7%	113%	99.9%	87.4%	89.5%	108%	116%	76.5%	85.7%	107%	91.3%	71.6%	83.6%	111%	98.3%	128%	94.8%	94.3%	73.4%	86.8%	87.7%	84.7%
